Here are results for 22 molecules from ChEMBL document CHEMBL1144830, “Synthesis of small molecule inhibitors of the orphan nuclear receptor steroidogenic factor-1 (NR5A1) based on isoquinolinone scaffolds” (Bioorg Med Chem Lett, 2008).

Test [1] concerns the target T1, Nuclear receptor ROR-alpha (Homo sapiens, UniProt P35398).
T1 sequence (P35398 whole entry): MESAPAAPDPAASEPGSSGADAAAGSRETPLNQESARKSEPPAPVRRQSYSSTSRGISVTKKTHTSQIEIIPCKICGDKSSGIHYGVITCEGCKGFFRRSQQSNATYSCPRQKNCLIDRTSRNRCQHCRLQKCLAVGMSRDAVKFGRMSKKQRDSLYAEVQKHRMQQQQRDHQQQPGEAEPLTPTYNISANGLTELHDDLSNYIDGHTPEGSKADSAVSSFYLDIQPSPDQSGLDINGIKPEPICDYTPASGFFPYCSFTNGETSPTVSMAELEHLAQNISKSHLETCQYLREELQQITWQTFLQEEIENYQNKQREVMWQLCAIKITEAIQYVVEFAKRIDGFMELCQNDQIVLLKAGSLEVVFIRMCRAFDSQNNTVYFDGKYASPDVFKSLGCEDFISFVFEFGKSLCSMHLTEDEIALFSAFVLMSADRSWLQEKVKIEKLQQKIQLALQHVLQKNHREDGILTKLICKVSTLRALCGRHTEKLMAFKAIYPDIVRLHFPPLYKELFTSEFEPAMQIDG
Nature of the test: Inhibition of GAL4-tagged RORalpha by luciferase assay.

Test [2] can be described thus: Inhibition of HSV1 GAL4-tagged VP16 by luciferase assay.
For test [3], the target named is T2, Steroidogenic factor 1 (Homo sapiens, UniProt Q13285). Kind of test: Inhibition of GAL4-tagged NR5A1 by luciferase assay.
For test [4], the target named is T3, Nuclear receptor ROR-alpha (Homo sapiens) (UniProt P35398).
T3 sequence (whole entry): T1 sequence (P35398 whole entry)
Nature of the test: Inhibition of GAL4-tagged RORalpha at 100 uM by luciferase assay.

For test [5], the target named is T2, Steroidogenic factor 1. Nature of the test: Inhibition of GAL4-tagged NR5A1 at 100 uM by luciferase assay.
Test [6] can be described thus: Inhibition of HSV1 GAL4-tagged VP16 at 100 uM by luciferase assay.

T2 sequence (Q13285 whole entry, the tested form may be a part): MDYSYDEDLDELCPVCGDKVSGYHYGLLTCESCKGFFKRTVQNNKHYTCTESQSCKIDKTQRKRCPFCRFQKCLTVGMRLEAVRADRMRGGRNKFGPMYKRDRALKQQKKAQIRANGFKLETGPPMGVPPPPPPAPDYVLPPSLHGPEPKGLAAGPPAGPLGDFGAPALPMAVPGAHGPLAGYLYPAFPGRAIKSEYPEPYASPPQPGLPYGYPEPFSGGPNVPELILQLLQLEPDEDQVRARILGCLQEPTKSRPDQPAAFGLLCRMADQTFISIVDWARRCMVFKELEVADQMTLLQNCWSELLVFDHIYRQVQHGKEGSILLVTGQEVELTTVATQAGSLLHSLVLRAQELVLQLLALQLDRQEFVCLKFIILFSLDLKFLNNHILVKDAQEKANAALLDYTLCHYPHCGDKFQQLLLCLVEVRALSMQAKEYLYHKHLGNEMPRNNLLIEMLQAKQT

Usually IC50 stands for the concentration needed to halve the response being measured. A higher IC50 goes with weaker potency in that assay. `CCCCOc1cccc2c(=O)n(CC(=O)Nc3ccc4c(c3)OCCO4)ccc12`: the figures for the IC50 (in test [1]; in test [2]; against Steroidogenic factor 1 [3]) were 21.5 µM, 24.1 µM and 13.7 µM, respectively.
In general, inhibition refers to the drop in the measured response relative to a control, in per cent. Higher therefore signals strong suppression. As for `CCOC(=O)C(C)Oc1cccc2c(=O)n(C(C)C(=O)Nc3ccc4c(c3)OCCO4)ccc12` (stereo unspecified), the inhibition (in test [4]; against Steroidogenic factor 1 [5]; in test [6]) was less than 50% each time.
Consider `CCCCNC(=O)Cn1ccc2c(OC(C)C(=O)OCC)cccc2c1=O` (stereo unspecified), for which the inhibition in test [4] and in test [6] was less than 50% throughout. It took 9.71 µM to reach half-maximal inhibition at Steroidogenic factor 1 [3] (IC50).
Turning to `CCOC(=O)C(C)(C)Oc1cccc2c(=O)n(CC(=O)Nc3ccc4c(c3)OCCO4)ccc12`, in test [4], the inhibition was less than 50%. For the same molecule, the figures for the half-maximal inhibitory concentration (IC50) (in test [2]; against Steroidogenic factor 1 [3]) were greater than 33 µM and 0.59 µM, respectively.
Turning to `CCOC(=O)C(C)Oc1cccc2c(=O)n(CC(=O)Nc3ccc(OCC)cc3)ccc12` (stereo unspecified), the half-inhibitory concentration (IC50) in test [1] is 22.6 µM; in test [2] it was 24.2 µM; at Steroidogenic factor 1 [3], 0.19 µM.
Take `CCOC(=O)C(C)Oc1cccc2c(=O)n(CC(=O)NCc3ccccc3)ccc12` (stereo unspecified): the half-maximal inhibitory concentration (IC50) worked out at 3.22 µM in test [1] and 1.06 µM on Steroidogenic factor 1 [3]. This molecule also gave an inhibition in test [6] of less than 50%.
In the case of `CCOC(=O)C(C)Oc1cccc2c(=O)n(CC(=O)Nc3ccc(OC(F)(F)F)cc3)ccc12` (stereo unspecified), the inhibition in test [4] and in test [6] was less than 50% throughout. This molecule came in with an IC50 against Steroidogenic factor 1 [3] of 0.2 µM.
For `CCOC(=O)C(C)Oc1cccc2c(=O)n(CC(=O)Nc3ccc(CC)cc3)ccc12` (stereo unspecified), the concentration for half-maximal inhibition (IC50) in test [1] was 25 µM; in test [2] it was greater than 33 µM; on Steroidogenic factor 1 [3] it was 0.11 µM.
In the case of `CCOC(=O)C(C)Oc1cccc2c(=O)n(C(Cc3ccccc3)C(=O)Nc3ccc4c(c3)OCCO4)ccc12` (stereo unspecified), the inhibition (in test [4]; against Steroidogenic factor 1 [5]; in test [6]) was less than 50% throughout.
Consider `CCOC(=O)C(C)Oc1cccc2c(=O)n(CC(=O)NCc3ccco3)ccc12` (stereo unspecified), for which the IC50 in test [1] is greater than 33 µM; at Steroidogenic factor 1 [3], 4.71 µM. This molecule also returned an inhibition in test [6] of less than 50%.
On the same counts, the results for `CCOC(=O)C(C)Oc1cccc2c(=O)n(CC(=O)NCCc3ccccc3)ccc12` (stereo unspecified) are greater than 33 µM, 0.36 µM and less than 50%.
Regarding `CCOC(=O)C(C)Oc1cccc2c(=O)n(CC(=O)Nc3ccc(OC)cc3)ccc12` (stereo unspecified), the inhibition in test [4] and in test [6] was less than 50% in each case. The molecule further registered a half-inhibitory concentration (IC50) on Steroidogenic factor 1 [3] of 0.2 µM.
Turning to `CCOC(=O)C(C)Oc1cccc2c(=O)n(CC(=O)NC3CCCCC3)ccc12` (stereo unspecified), the inhibition in test [4] and in test [6] was less than 50% each time. This molecule had an IC50 against Steroidogenic factor 1 [3] of 1.77 µM.
With `CCOC(=O)C(C)Oc1ccc2c(=O)n(CC(=O)Nc3ccc4c(c3)OCCO4)ccc2c1` (stereo unspecified), the inhibition (in test [4]; on Steroidogenic factor 1 [5]; in test [6]) was less than 50% in each case.
Take `CCOC(=O)C(C)Oc1cccc2c(=O)n(CC(=O)NCc3ccc(F)cc3)ccc12` (stereo unspecified): the half-maximal inhibitory concentration (IC50) in test [1] is 1.68 µM; at Steroidogenic factor 1 [3], 0.68 µM. Also, in test [6], the inhibition is less than 50%.
As for `CCOC(=O)C(C)Oc1cccc2c(=O)n(CCC(=O)Nc3ccc4c(c3)OCCO4)ccc12` (stereo unspecified), the inhibition in test [4] and in test [6] was less than 50% in each case. For the same molecule, the concentration for half-maximal inhibition (IC50) at Steroidogenic factor 1 [3] amounted to 8.46 µM.
Turning to `CCOC(=O)C(C)Oc1cccc2c(=O)n(CC(=O)NCc3ccc4c(c3)OCO4)ccc12` (stereo unspecified), the results for the IC50 (in test [1]; in test [2]; against Steroidogenic factor 1 [3]) were greater than 33 µM, greater than 33 µM and 0.26 µM, respectively.
Turning to `CCCCc1ccc(NC(=O)Cn2ccc3c(OC(C)C(=O)OCC)cccc3c2=O)cc1` (stereo unspecified), the IC50 in test [1] stood at 30.7 µM; against Steroidogenic factor 1 [3] it was 0.36 µM. Moreover, in test [6], the inhibition was less than 50%.
On to `CCOC(=O)C(C)Oc1cccc2c(=O)n(CC(=O)Nc3ccc([N+](=O)[O-])cc3)ccc12` (stereo unspecified), for which the inhibition in test [4] and in test [6] was less than 50% in each case. Moreover, the IC50 on Steroidogenic factor 1 [3] was determined as 0.53 µM.
In the case of `CCOC(=O)C(C)Oc1cccc2c(=O)n(CC(=O)Nc3ccc(C)cc3)ccc12` (stereo unspecified), the half-inhibitory concentration (IC50) is 36.5 µM in test [1], greater than 33 µM in test [2] and 0.34 µM against Steroidogenic factor 1 [3].
Turning to `CCOC(=O)C(C)Oc1cccc2c(=O)n(CC(=O)N(C)c3ccc4c(c3)OCCO4)ccc12` (stereo unspecified), the inhibition in test [4] and in test [6] was less than 50% each time. Further, the half-maximal inhibitory concentration (IC50) at Steroidogenic factor 1 [3] is 3.57 µM.
On to `CCOC(=O)C(C)Oc1cccc2c(=O)n(CC(=O)Nc3ccc4c(c3)OCCO4)ccc12` (stereo unspecified), for which the IC50 in test [1] was greater than 33 µM; in test [2], greater than 33 µM; on Steroidogenic factor 1 [3], 0.76 µM.
